Laboratory results taken from patent US9828393B2, “Silylalkyloxyaryl compounds and methods for treating cancer” (THE REGENTS OF THE UNIVERSITY OF COLORADO, a body corporate, priority 2013, dated 2017).

How the values were obtained:
MOLT-4 = assay: NCI-60 cell line screen (SRB), MOLT-4; assay type: cell-based, human; conditions: Homo sapiens, MOLT-4, 48 h
Description: (§1) Drug sensitivity data are provided as GI50s (concentrations required to inhibit growth by 50%). The first row of the text file identifies cell lines, separated by tabs. Subsequent rows contain compound number, compound name, and GI50 for each cell line, each separated by a tab. […] For a typical screening experiment, cells are inoculated into 96 well microtiter plates in 100 μL at plating densities ranging from 5,000 to 40,000 cells/well depending on the doubling time of individual cell lines. After cell inoculation, the microtiter plates are incubated at 37° C., 5% CO2, 95% air and 100% relative humidity for 24 h prior to addition of experimental drugs. After 24 h, two plates of each cell line are fixed in situ with TCA, to represent a measurement of the cell population for each cell line at the time of drug addition (Tz). Experimental drugs are solubilized in dimethyl sulfoxide at 400-fold the desired final maximum test concentration and stored frozen prior to use. At the time of drug addition, an aliquot of frozen concentrate is thawed and diluted to twice the desired final maximum test concentration with complete medium containing 50 μg/ml gentamicin. Additional four, 10-fold or one-half log serial dilutions are made to provide a total of five drug concentrations plus control. Aliquots of 100 μl of these different drug dilutions are added to the appropriate microtiter wells already containing 100 μl of medium, resulting in the required final drug concentrations. Following drug addition, the plates are incubated for an additional 48 h at 37° C., 5% CO2, 95% air, and 100% relative humidity. For adherent cells, the assay is terminated by the addition of cold TCA. Cells are fixed in situ by the gentle addition of 50 μl of cold 50% (w/v) TCA (final concentration, 10% TCA) and incubated for 60 minutes at 4° C. The supernatant is discarded, and the plates are washed five times with tap water and air dried. Sulforhodamine B (SRB) solution (100 μl) at 0.4% (w/v) in 1% acetic acid is added to each well, and plates are incubated for 10 minutes at room temperature. After staining, unbound dye is removed by washing five times with 1% acetic acid and the plates are air dried. Bound stain is subsequently solubilized with 10 mM trizma base, and the absorbance is read on an automated plate reader at a wavelength of 515 nm. For suspension cells, the methodology is the same except that the assay is terminated by fixing settled cells at the bottom of the wells by gently adding 50 μl of 80% TCA (final concentration, 16% TCA). Using the seven absorbance measurements [time zero, (Tz), control growth, (C), and test growth in the presence of drug at the five concentration levels (Ti)], the percentage growth is calculated at each of the drug concentrations levels. […]

A549/ATCC = assay: NCI-60 cell line screen (SRB), A549/ATCC; assay type: cell-based, human; conditions: Homo sapiens, A549, 48 h
Description: as §1

NCI-H23 = assay: NCI-60 cell line screen (SRB), NCI-H23; assay type: cell-based, human; conditions: Homo sapiens, NCI-H23, 48 h
Description: as §1

NCI-H322M = assay: NCI-60 cell line screen (SRB), NCI-H322M; assay type: cell-based, human; conditions: Homo sapiens, 48 h
Description: as §1

[1] = system: Non-Small Cell Lung Cancer cell lines; assay: NCI-60 cell line screen, Non-Small Cell Lung Cancer panel average; assay type: cell-based, human; conditions: Homo sapiens, read-out: GI50 Average
Description: as §1

HCC-2998 = assay: NCI-60 cell line screen (SRB), HCC-2998; assay type: cell-based, human; conditions: Homo sapiens, HCC 2998, 48 h
Description: as §1

SF-268 = assay: NCI-60 cell line screen (SRB), SF-268; assay type: cell-based, human; conditions: Homo sapiens, SF-268, 48 h
Description: as §1

SF-539 = assay: NCI-60 cell line screen (SRB), SF-539; assay type: cell-based, human; conditions: Homo sapiens, SF-539, 48 h
Description: as §1

SNB-19 = assay: NCI-60 cell line screen (SRB), SNB-19; assay type: cell-based, human; conditions: Homo sapiens, SNB-19, 48 h
Description: as §1

SNB-75 = assay: NCI-60 cell line screen (SRB), SNB-75; assay type: cell-based; conditions: Homo sapiens, SNB-75, 48 h
Description: as §1, with “temperature.” for “temperature. After staining, unbound dye is removed by washing five times with 1% acetic acid and the plates are air dried. Bound stain is subsequently solubilized with 10 mM trizma base, and the absorbance is read on an automated plate reader at a wavelength of 515 nm. For suspension cells, the methodology is the same except that the assay is terminated by fixing settled cells at the bottom of the wells by gently adding 50 μl of 80% TCA (final concentration, 16% TCA). Using the seven absorbance measurements [time zero, (Tz), control growth, (C), and test growth in the presence of drug at the five concentration levels (Ti)], the percentage growth is calculated at each of the drug concentrations levels.”

CNS Cancer cell lines = assay: NCI-60 cell line screen, CNS Cancer panel average; assay type: cell-based, human; conditions: Homo sapiens, read-out: GI50 Average
Description: as §1

MALME-3M = assay: NCI-60 cell line screen (SRB), MALME-3M; assay type: cell-based, human; conditions: Homo sapiens, Malme-3M, 48 h
Description: as §1

SK-MEL-28 = assay: NCI-60 cell line screen (SRB), SK-MEL-28; assay type: cell-based, human; conditions: Homo sapiens, SK-MEL-28, 48 h
Description: as §1

SK-MEL-5 = assay: NCI-60 cell line screen (SRB), SK-MEL-5; assay type: cell-based, human; conditions: Homo sapiens, SK-MEL-5, 48 h
Description: as §1

UACC-62 = assay: NCI-60 cell line screen (SRB), UACC-62; assay type: cell-based, human; conditions: Homo sapiens, UACC-62, 48 h
Description: as §1

IGROV1 = assay: NCI-60 cell line screen (SRB), IGROV1; assay type: cell-based, human; conditions: Homo sapiens, IGROV-1, 48 h
Description: as §1

OVCAR-5 = assay: NCI-60 cell line screen (SRB), OVCAR-5; assay type: cell-based, human; conditions: Homo sapiens, OVCAR-5, 48 h
Description: as §1

CAKI-1 = assay: NCI-60 cell line screen (SRB), CAKI-1; assay type: cell-based, human; conditions: Homo sapiens, CAKI-1, 48 h
Description: as §1

RXF 393 = assay: NCI-60 cell line screen (SRB), RXF 393; assay type: cell-based, human; conditions: Homo sapiens, RXF 393, 48 h
Description: as §1

Renal Cancer cell lines = assay: NCI-60 cell line screen, Renal Cancer panel average; assay type: cell-based, human; conditions: Homo sapiens, read-out: GI50 Average
Description: as §1

MCF-7 = assay: NCI-60 cell line screen (SRB), MCF-7; assay type: cell-based, human; conditions: Homo sapiens, MCF7, 48 h
Description: as §1

BT-549 = assay: NCI-60 cell line screen (SRB), BT-549; assay type: cell-based, human; conditions: Homo sapiens, BT-549, 48 h
Description: as §1

T-47D = assay: NCI-60 cell line screen (SRB), T-47D; assay type: cell-based, human; conditions: Homo sapiens, T47D, 48 h
Description: as §1

`CCCC[Si](C)(C)COc1ccc(C(=O)N[C@@H](Cc2ccc(-c3ccccc3)cc2)C(=O)NC2CC(C)(C)NC(C)(C)C2)cc1` [GH1504, N^α-{4-[(butyldimethylsilyl)methoxy]-benzoyl}-N-(2,2,6,6-tetramethylpiperidin-4-yl)-(4-phenyl-L-phenylalaninamide)] was tested, and the GI50 (MOLT-4) was 775 nM, the GI50 (A549/ATCC) was 326 nM and the GI50 (NCI-H23) was 1760 nM. It also gave a GI50 (NCI-H322M) of 1710 nM, a GI50 [1] of 1020 nM and a GI50 (HCC-2998) of 1110 nM. The GI50 (SF-268) was 679 nM, the GI50 (SF-539) was 1770 nM and the GI50 (SNB-19) was 1550 nM. The GI50 (SNB-75) was 1630 nM, the GI50 (CNS Cancer cell lines) was 1170 nM and the GI50 (MALME-3M) was 1750 nM. It also gave a GI50 (SK-MEL-28) of 1330 nM, a GI50 (SK-MEL-5) of 234 nM and a GI50 (UACC-62) of 1150 nM. The GI50 (IGROV1) was 1640 nM, the GI50 (OVCAR-5) was 1810 nM and the GI50 (CAKI-1) was 1580 nM. It also gave a GI50 (RXF 393) of 179 nM, a GI50 (Renal Cancer cell lines) of 1010 nM and a GI50 (MCF-7) of 332 nM. It also gave a GI50 (BT-549) of 1960 nM and a GI50 (T-47D) of 1820 nM.
